Laboratory results from US20110224208A1, “NOVEL INHIBITORS OF FLAVIVIRUS REPLICATION” (KATHOLIEKE UNIVERSITEIT LEUVEN, K.U. LEUVEN R&D, priority 2008, published 2011).
≈ marks a conversion by molar mass, not a printed value.

Legend:
[1] = tested on: HCV replicon (RNA) synthesis; test: Quantitative analysis of HCV replicon RNA by Taqman real-time RT-PCR in Huh-5-2 cells; type: cell-based, Hepatitis C virus; settings: for EC50: Hepatitis C virus, Huh-5-2, concentration required to reduce the synthesis of HCV replicon by 50% as determined by real-time quantitative RT-PCR; for CT: Huh-5-2 cells, untreated 26.27 ± 0.34; for Delta CT: higher Delta CT = more profound inhibition of viral RNA synthesis
Experimental: Replicon cells were plated at 7.5×10^3 cells per well in a 96-well plate plates at 37° C. and 5% CO2 in Dulbecco's modified essential medium containing 10% fetal calf serum, 1% nonessential amino acids and 1 mg/ml Geneticin. After allowing 24 h for cell attachment, different dilutions of compound were added to the cultures. Plates were incubated for 5 days, at which time RNA was extracted using the Qiamp Rneazyi Kit (Qiagen, Hilden, Germany). […] After initial activation of uracil-N-glycosylase at 50° C. for 2 minutes, RT was performed at 60° C. for 30 minutes, followed by inactivation of uracil-N-glycosylase at 95° C. for 5 minutes. Subsequent PCR amplification consisted of 40 cycles of denaturation at 94° C. for 20 seconds and annealing and extension at 62° C. for 1 minute in an ABI 7700 sequence detector. For each PCR run, negative template and positive template samples were used. The cycle threshold value (Ct-value) is defined as the number of PCR cycles for which the signal exceeds the baseline, which defines a positive value. The sample was considered to be positive if the Ct-value was <50. Results are expressed as genomic equivalents (GE).

[2] = tested on: HCV replicon I389luc-ubi-neo/NS3-3'/5.1; test: Anti-HCV replicon assay (luciferase activity) in Huh-5-2 cells; type: cell-based, Hepatitis C virus; settings: Hepatitis C virus, Huh-5-2, 72 h, concentration required to inhibit luciferase activity in the replicon system by 50%
Method in brief: (§1)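 Huh-5-2 cells carrying the luciferase HCV replicon, seeded 24 h, then exposed to serial compound dilutions without G418 for 72 h at 37° C, 5% CO2. Replication read as luciferase luminescence, expressed as percentage of untreated cultures; culture density measured in parallel by MTS.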

[3] = Proliferation of exponentially growing Huh-5-2 cells (MTS method); settings: human, CC50, concentration required to inhibit the proliferation of exponentially growing Huh-5-2 cells by 50%; Table 2
Method in brief: as §1

## COCCN1C(=O)c2ccccc2C(C(=O)Nc2cccc(F)c2)C1c1cccs1 (centres unmarked) [C47, N-(3-fluorophenyl)-2-(2-methoxyethyl)-1-oxo-3-(thiophen-2-yl)-1,2,3,4-tetrahydroisoquinoline-4-carboxamide]
[1]
  EC50: 1.42 µg/mL (≈ 3.35 µM)
[2]
  IC50: 0.4 µg/mL (≈ 0.942 µM)

## COCCN1C(=O)c2ccccc2C(C(=O)Nc2ccc(Oc3cncc(C)n3)cc2)C1c1cccs1 (centres unmarked) [C191, 2-(2-methoxyethyl)-N-(4-(6-methylpyrazin-2-yloxy)phenyl)-1-oxo-3-(thiophen-2-yl)-1,2,3,4-tetrahydroisoquinoline-4-carboxamide]
[1]
  EC50: 0.013 µg/mL (≈ 0.0253 µM)
[2]
  IC50: 0.013 µg/mL (≈ 0.0253 µM)

## COCCN1C(=O)c2ccccc2C(C(=O)Nc2ccc(-n3cccc3)cc2)C1c1ccc(Cl)s1 (centres unmarked) [C153, N-(4-(1H-pyrrol-1-yl)phenyl)-3-(5-chlorothiophen-2-yl)-2-(2-methoxyethyl)-1-oxo-1,2,3,4-tetrahydroisoquinoline-4-carboxamide]
[1]
  EC50: 1.12 µg/mL (≈ 2.21 µM)
[2]
  IC50: 0.104 µg/mL (≈ 0.206 µM)

## COCCN1C(=O)c2ccccc2C(C(=O)Nc2ccc(-c3ncccn3)cc2)C1c1cccs1 (centres unmarked) [C175, 2-(2-methoxyethyl)-1-oxo-N-(4-(pyrimidin-2-yl)phenyl)-3-(thiophen-2-yl)-1,2,3,4-tetrahydroisoquinoline-4-carboxamide]
[1]
  EC50: 0.046 µg/mL (≈ 0.0949 µM)
[2]
  IC50: 0.057 µg/mL (≈ 0.118 µM)

## COCCN1C(=O)c2c(ccc(OC)c2F)C(C(=O)Nc2cccc(OC)c2)C1c1cccs1 (centres unmarked) [C128, 8-fluoro-7-methoxy-2-(2-methoxyethyl)-N-(3-methoxyphenyl)-1-oxo-3-(thiophen-2-yl)-1,2,3,4-tetrahydroisoquinoline-4-carboxamide]
[1]
  EC50: 0.14 µg/mL (≈ 0.289 µM)
[2]
  IC50: 0.4 µg/mL (≈ 0.826 µM)

## COCCN1C(=O)c2ccccc2C(C(=O)Nc2cccc(OC)c2)C1c1cccs1 (centres unmarked) [2-(2-methoxyethyl)-N-(3-methoxyphenyl)-1-oxo-3-(thiophen-2-yl)-1,2,3,4-tetrahydroisoquinoline-4-carboxamide]
[1]; 5 ug/ml
  CT: 28.65
  Delta CT: 2.38
[1]; 10 ug/ml
  CT: 29.29
  Delta CT: 3.02
[1]; 20 ug/ml
  CT: 29.24
  Delta CT: 2.97

## COCCN1C(=O)c2ccccc2C(C(=O)Nc2cc(C(C)(C)C)on2)C1c1cccs1 (centres unmarked) [C142, N-(5-tert-butylisoxazol-3-yl)-2-(2-methoxyethyl)-1-oxo-3-(thiophen-2-yl)-1,2,3,4-tetrahydroisoquinoline-4-carboxamide]
[1]
  EC50: 0.22 µg/mL (≈ 0.485 µM)
[2]
  IC50: 0.04 µg/mL (≈ 0.0882 µM)

## COCCN1C(=O)c2ccccc2C(C(=O)Nc2cccc(OC)c2)C1C(C)(C)C (centres unmarked) [C57, 3-tert-Butyl-2-(2-methoxyethyl)-N-(3-methoxyphenyl)-1-oxo-1,2,3,4-tetrahydroisoquinoline-4-carboxamide]
[3]
  CC50 at 72 h: 76.2 µg/mL (≈ 186 µM)
[2]
  IC50: 39.5 µg/mL (≈ 96.1 µM)

## COCCN1C(=O)c2ccccc2C(C(=O)Nc2ccc(C)c(NS(C)(=O)=O)c2)C1c1cccs1 (centres unmarked) [C213, 2-(2-methoxyethyl)-N-(4-methyl-3-(methylsulfonamido)phenyl)-1-oxo-3-(thiophen-2-yl)-1,2,3,4-tetrahydroisoquinoline-4-carboxamide]
[3]
  CC50 at 72 h: > 100 µg/mL
[2]
  IC50: 0.036 µg/mL (≈ 0.0701 µM)

## COCCN1C(=O)c2ccccc2C(C(=O)Nc2cc(C)no2)C1c1cccs1 (centres unmarked) [C127, 2-(2-methoxyethyl)-N-(3-methylisoxazol-5-yl)-1-oxo-3-(thiophen-2-yl)-1,2,3,4-tetrahydroisoquinoline-4-carboxamide]
[3]
  CC50 at 72 h: 87.2 µg/mL (≈ 212 µM)
[2]
  IC50: 10.3 µg/mL (≈ 25 µM)

## COCCN1C(=O)c2ccccc2C(C(=O)Nc2cccc(OC)c2)C1c1sccc1Cl (centres unmarked) [C17, 3-(3-Chlorothiophen-2-yl)-2-(2-methoxyethyl)-N-(3-methoxyphenyl)-1-oxo-1,2,3,4-tetrahydroisoquinoline-4-carboxamide]
[3]
  CC50 at 72 h: 50.4 µg/mL (≈ 107 µM)
[2]
  IC50: 3.8 µg/mL (≈ 8.07 µM)

## COCCN1C(=O)c2ccccc2C(C(=O)Nc2ccc(Cn3ccnc3)cc2)C1c1cccs1 (centres unmarked) [C215, N-(4-((1H-imidazol-1-yl)methyl)phenyl)-2-(2-methoxyethyl)-1-oxo-3-(thiophen-2-yl)-1,2,3,4-tetrahydroisoquinoline-4-carboxamide]
[3]
  CC50 at 72 h: 52.9 µg/mL (≈ 109 µM)
[2]
  IC50: 1.04 µg/mL (≈ 2.14 µM)

## COCCN1C(=O)c2ccccc2C(C(=O)Nc2ccccc2)C1c1cccs1 (centres unmarked) [C18, 2-(2-Methoxyethyl)-1-oxo-N-phenyl-3-(thiophen-2-yl)-1,2,3,4-tetrahydroisoquinoline-4-carboxamide]
[3]
  CC50 at 72 h: 78.2 µg/mL (≈ 192 µM)
[2]
  IC50: 2.65 µg/mL (≈ 6.52 µM)

## COCCN1C(=O)c2ccccc2C(C(=O)Nc2cccc(OC)c2)C1c1cc(C)on1 (centres unmarked) [C103, 2-(2-methoxyethyl)-N-(3-methoxyphenyl)-3-(5-methylisoxazol-3-yl)-1-oxo-1,2,3,4-tetrahydroisoquinoline-4-carboxamide]
[3]
  CC50 at 72 h: 75.2 µg/mL (≈ 173 µM)
[2]
  IC50: 40.4 µg/mL (≈ 92.7 µM)

## COCCN1C(=O)c2ccccc2C(C(=O)Nc2ccc(C(=O)NCc3ccccc3)cc2)C1c1cccs1 (centres unmarked) [C137, N-(4-(benzylcarbamoyl)phenyl)-2-(2-methoxyethyl)-1-oxo-3-(thiophen-2-yl)-1,2,3,4-tetrahydroisoquinoline-4-carboxamide]
[3]
  CC50 at 72 h: 81.1 µg/mL (≈ 150 µM)
[2]
  IC50: 0.032 µg/mL (≈ 0.0593 µM)

## COCCN1C(=O)c2ccccc2C(C(=O)Nc2cc(-c3ccco3)[nH]n2)C1c1cccs1 (centres unmarked) [C183, N-(5-(furan-2-yl)-1H-pyrazol-3-yl)-2-(2-methoxyethyl)-1-oxo-3-(thiophen-2-yl)-1,2,3,4-tetrahydroisoquinoline-4-carboxamide]
[3]
  CC50 at 72 h: 77 µg/mL (≈ 166 µM)
[2]
  IC50: 50.2 µg/mL (≈ 109 µM)

## CNC(=O)c1ccc(NC(=O)C2c3ccccc3C(=O)N(CCOC)C2c2cccs2)cc1 (centres unmarked) [C141, 2-(2-methoxyethyl)-N-(4-(methylcarbamoyl)phenyl)-1-oxo-3-(thiophen-2-yl)-1,2,3,4-tetrahydroisoquinoline-4-carboxamide]
[3]
  CC50 at 72 h: 73.8 µg/mL (≈ 159 µM)
[2]
  IC50: 0.63 µg/mL (≈ 1.36 µM)

## COCCN1C(=O)c2ccccc2C(C(=O)Nc2cccc(OC)c2)C1c1ccco1 (centres unmarked) [C6, 3-(furan-2-yl)-2-(2-methoxyethyl)-N-(3-methoxyphenyl)-1-oxo-1,2,3,4-tetrahydroisoquinoline-4-carboxamide]
[3]
  CC50 at 72 h: 69.6 µg/mL (≈ 166 µM)
[2]
  IC50: 6.3 µg/mL (≈ 15 µM)

## COCCN1C(=O)c2ccccc2C(C(=O)Nc2ccc(CO)cc2)C1c1cccs1 (centres unmarked) [C181, N-(4-(hydroxymethyl)phenyl)-2-(2-methoxyethyl)-1-oxo-3-(thiophen-2-yl)-1,2,3,4-tetrahydroisoquinoline-4-carboxamide]
[3]
  CC50 at 72 h: 79.9 µg/mL (≈ 183 µM)
[2]
  IC50: 0.25 µg/mL (≈ 0.573 µM)

## COCCN1C(=O)c2ccccc2C(C(=O)Nc2cccc(Cc3ccccc3)c2)C1c1cccs1 (centres unmarked) [C89, N-(3-benzylphenyl)-2-(2-methoxyethyl)-1-oxo-3-(thiophen-2-yl)-1,2,3,4-tetrahydroisoquinoline-4-carboxamide]
[3]
  CC50 at 72 h: 0.62 µg/mL (≈ 1.25 µM)
[2]
  IC50: 0.11 µg/mL (≈ 0.221 µM)

## COCCN1C(=O)c2ccccc2C(C(=O)N(C)c2cccc(OC)c2)C1c1cccs1 (centres unmarked) [C151, 2-(2-methoxyethyl)-N-(3-methoxyphenyl)-N-methyl-1-oxo-3-(thiophen-2-yl)-1,2,3,4-tetrahydroisoquinoline-4-carboxamide]
[3]
  CC50 at 72 h: 52 µg/mL (≈ 115 µM)
[2]
  IC50: 22.8 µg/mL (≈ 50.7 µM)

## COCCN1C(=O)c2ccccc2C(C(=O)Nc2cccc(OC)c2)C1c1nccs1 (centres unmarked) [C102, 2-(2-methoxyethyl)-N-(3-methoxyphenyl)-1-oxo-3-(thiazol-2-yl)-1,2,3,4-tetrahydroisoquinoline-4-carboxamide]
[3]
  CC50 at 72 h: 72.8 µg/mL (≈ 166 µM)
[2]
  IC50: 26.8 µg/mL (≈ 61.3 µM)

## COCCN1C(=O)c2ccccc2C(C(=O)NCc2cccc3ccccc23)C1c1cccs1 (centres unmarked) [C72, 2-(2-methoxyethyl)-N-(naphthalen-1-ylmethyl)-1-oxo-3-(thiophen-2-yl)-1,2,3,4-tetrahydroisoquinoline-4-carboxamide]
[3]
  CC50 at 72 h: 71.2 µg/mL (≈ 151 µM)
[2]
  IC50: 35.8 µg/mL (≈ 76.1 µM)
